According to US7868013B2, “Cycloalkyl substituted pyrimidinediamine compounds and their uses” (Rigel Pharmaceuticals, Inc., priority 2004, dated 2011):
Structures can show the parent of a compound that is named as a salt. Where two headings read alike, the source gives them in different places.

Columns and labels:
[1] = tested on: H1299 (non-small cell lung carcinoma); experiment: In vitro antiproliferation assay, H1299 cells (TABLE 1 6 point assay; TABLE 2); format: cell-based
Protocol: (§1) Certain compounds were tested against other cell types for their ability to inhibit proliferation in standard antiproliferation assays.

A549 (lung carcinoma) = experiment: In vitro antiproliferation assay, A549 cells (TABLE 1 6 point assay; TABLE 2); format: cell-based
Protocol: as §1

[2] = Homo sapiens, NCI-H1299, 6 point assay, H1299 cells, read-out: IC50, H1299 cells
[3] = Homo sapiens, A549, 6 point assay, A549 cells, read-out: IC50, A549 cells
[4] = 6 point assay, H1299 cells, read-out: IC50, H1299 cells
[5] = 6 point assay, A549 cells, read-out: IC50, A549 cells
[6] = Homo sapiens, NCI-H1299, H1299 cells, 6 point assay, read-out: H1299, 6pt (IC50, inhibition of proliferation)
[7] = Homo sapiens, A549, A549 cells, 6 point assay, read-out: A549, 6pt (IC50, inhibition of proliferation)

SMILES	IC50 [1, 2]	IC50 (A549 (lung carcinoma); [3])	IC50 [1, 6]	IC50 (A549 (lung carcinoma); [7])	other results
CN1CCN(c2ccc(Nc3ncc(F)c(N[C@H]4CCC[C@H]4C(N)=O)n3)cc2CO)CC1 (racemic) [compound 217, Racemic-cis-N4-(2-aminocarbonylcyclopent-1-yl)-5-fluoro-N2-[3-hydroxymethylene-4-(4-methylpiperazin-1-yl)phenyl]-2,4-pyrimidinediamine]	1 to 10 µM	0.1 to 1 µM	–	–	–
COC(=O)[C@@H]1CC[C@H](Nc2nc(Nc3ccc(N4CCN(C)CC4)c(C)c3)ncc2F)C1 [compound 215, (1S,3R)-N4-(3-Methoxycarbonylcyclopent-1-yl)-5-fluoro-N2-[3-methyl-4-(4-methylpiperazin-1-yl)phenyl]-2,4-pyrimidinediamine]	1 to 10 µM	1 to 10 µM	–	–	–
Cc1cc(Nc2ncc(F)c(N[C@H]3CCC[C@@H]3C(=O)O)n2)ccc1N1CCN(C)CC1 [compound 209, (1S,2S)-5-fluoro-N4-(2-hydroxycarbonylcyclopent-1-yl)-N2-[3-methyl-4-(4-methylpiperazino)phenyl]-2,4-pyrimidinediamine]	> 10 µM	> 10 µM	–	–	–
CN1CCN(c2ccc(Nc3ncc(F)c(NC4CCCC4C(N)=O)n3)cc2)CC1 (centres unmarked) [compound 203, N4-(2-Carboxamidocyclopentyl)-5-fluoro-N2-[4-(4-methylpiperazino)phenyl]-2,4-pyrimidinediamine Monohydrochloride Salt]	–	–	–	–	IC50 [1, 4]: 0.1 to 1 µM; IC50 (A549 (lung carcinoma); [5]): 0.1 to 1 µM
Cc1cc(Nc2ncc(F)c(N[C@H]3[C@@H](C(N)=O)[C@@H]4C=C[C@H]3C4)n2)ccc1N1CCN(CCO)CC1 [compound 116, (1R,2R,3S,4S)-N4-(3-Aminocarbonylbicyclo[2.2.1]hept-5-en-2-yl)-5-fluoro-N2-{4-[4-(2-hydroxyethyl)piperazin-1-yl]-3-methylphenyl}-2,4-pyrimidinediamine]	–	–	≤ 0.1 µM	≤ 0.1 µM	–
CN1CCN(CCn2ccc3cc(Nc4ncc(F)c(NC5C6C=CC(C6)C5C(N)=O)n4)ccc32)CC1 (racemic) [compound 134, Racemic-(2-exo,3-exo)-N4-(3-aminocarbonylbicyclo[2.2.1]hept-5-en-2-yl)-5-fluoro-N2-{1-[2-(4-methylpiperazin-1-yl)ethyl]indol-5-yl}-2,4-pyrimidinediamine]	–	–	0.1 to 1 µM	0.1 to 1 µM	–
Cc1cc(Nc2ncc(F)c(N[C@H]3CC[C@@H](C(=O)O)C3)n2)ccc1N1CCN(C)CC1 [compound 219, (1S,3R)-N4-(3-Carboxycyclopent-1-yl)-fluoro-N2-[3-methyl-4-(4-methylpiparazin-1-yl)phenyl]-2,4-pyrimidinediamine]	> 10 µM	> 10 µM	–	–	–
CCS(=O)(=O)N1CCN(c2ccc(Nc3ncc(F)c(N[C@H]4[C@@H](C(N)=O)[C@@H]5C=C[C@H]4C5)n3)cc2C)CC1 [compound 269, (1R,2R,3S,4S)-N4-(3-Aminocarbonylbicyclo[2.2.1]hept-5-en-2-yl)-N2-[3-methyl-4-(4-ethylsulfonylpiperazin-1-yl)phenyl]-5-fluoro-2,4-pyrimidinediamine]	–	–	–	–	IC50 [1, 4]: ≤ 0.1 µM; IC50 (A549 (lung carcinoma); [5]): ≤ 0.1 µM
NC(=O)C1CCCC1Nc1nc(Nc2cccc(N3CCOCC3)c2)ncc1F (centres unmarked) [compound 200, N4-(2-Carboxamidocyclopentyl)-5-fluoro-N2-(3-morpholinophenyl)-2,4-pyrimidinediamine]	1 to 10 µM	0.1 to 1 µM	–	–	–
Cc1cc(Nc2ncc(F)c(N[C@H]3CCC[C@H]3C(N)=O)n2)ccc1N1CCCC1 (racemic) [Compound 287, Racemic-cis-N4-(2-aminocarbonylcyclopent-1-yl)-5-fluoro-N2-[3-methyl-4-(pyrrolidino)phenyl]-2,4-pyrimidinediamine]	1 to 10 µM	1 to 10 µM	–	–	–
Cc1cc(Nc2ncc(F)c(N[C@H]3[C@@H](C(N)=O)[C@@H]4C=C[C@H]3C4)n2)ccc1N1CCN(C)CC1 [compound 122, (1R,2R,3S,4S)-N4-(3-Aminocarbonylbicyclo[2.2.1]hept-5-en-2-yl)-5-fluoro-N2-[3-methyl-4-(4-methylpiperazin-1-yl)phenyl]-2,4-pyrimidinediamine Tartaric Acid Salt]	–	–	≤ 0.1 µM	≤ 0.1 µM	–
CN(C)CCN1CCc2cc(Nc3ncc(F)c(NC4C5C=CC(C5)C4C(=O)NC4CCC4)n3)ccc21 (racemic) [compound 176, Racemic-(2-exo,3-exo)-N4-[3-cyclobutylaminocarbonylbicyclo[2.2.1]hept-5-en-2-yl)-N2-[1-(2-dimethylaminoethyl)-2,3-dihydroindol-5-yl]-5-fluoro-2,4-pyrimidinediamine]	–	–	≤ 0.1 µM	≤ 0.1 µM	–
Cc1cc(Nc2ncc(F)c(N[C@@H]3[C@H](C(N)=O)[C@@H]4C=C[C@H]3C4)n2)ccc1N1CCN(C)CC1 [compound 154]	–	–	0.1 to 1 µM	0.1 to 1 µM	–
NC(=O)C1CCCC1Nc1nc(Nc2ccc(N3CCOCC3)cc2)ncc1F (centres unmarked) [compound 198, N4-(2-Carboxamidocyclopentyl)-5-fluoro-N2-(4-morpholinophenyl)-2,4-pyrimidinediamine]	0.1 to 1 µM	0.1 to 1 µM	–	–	–
Cc1cc(Nc2ncc(F)c(N[C@H]3[C@@H](C(N)=O)[C@@H]4C=C[C@H]3C4)n2)ccc1OC1CCN(C)CC1 [compound 150, (1R,2R,3S,4S)-N4-(3-Aminocarbonylbicyclo[2.2.1]hept-5-en-2-yl)-5-fluoro-N2-[3-methyl-4-(1-methylpiperidin-4-yloxy)phenyl]-2,4-pyrimidinediamine]	–	–	≤ 0.1 µM	≤ 0.1 µM	–
Cc1ccc(Nc2ncc(F)c(NC3C4C=CC(C4)C3C(N)=O)n2)cc1OCC(=O)N1CCOCC1 (racemic) [compound 103, Racemic-(2-exo, 3-exo)-N4-(3-aminocarbonylbicyclo[2.2.1]hept-5-en-2-yl)-5-fluoro-N2-[4-methyl-3-(N-morpholinyl)carbonylmethyleneoxyphenyl]-2,4-pyrimidinediamine]	–	–	≤ 0.1 µM	0.1 to 1 µM	–
Cc1cc(Nc2ncc(F)c(N[C@H]3CCC[C@H]3C(N)=O)n2)ccc1N1CCNCC1 (racemic) [compound 107, Racemic-cis-N4-(2-amino-carbonylcyclopent-1-yl)-5-fluoro-N2-[3-methyl-4-(piperazin-1-yl)phenyl]-2,4-pyrimidinediamine]	–	–	1 to 10 µM	1 to 10 µM	–

More lines, main results first:

IC50 [1, 2]	IC50 (A549 (lung carcinoma); [3])	IC50 [1, 6]	IC50 (A549 (lung carcinoma); [7])	SMILES	other results
≤ 0.1 µM	≤ 0.1 µM	–	–	Cc1cc(Nc2ncc(F)c(NC3C4C=CC(C4)C3C(N)=O)n2)ccc1N1CCN(C(C)C)CC1 (racemic) [compound 232, Racemic-(2-exo,3-exo)-N4-(3-aminocarbonylbicyclo[2.2.1]hept-5-en-2-yl)-5-fluoro-N2-[4-(4-isopropylpiperazin-1-yl)-3-methylphenyl]-2,4-pyrimidinediamine]	–
> 10 µM	> 10 µM	–	–	Cc1cc(Nc2ncc(F)c(NC3(C(=O)O)CCCC3)n2)ccc1N1CCN(C)CC1 [compound 246, N4-(1-Carboxycyclopent-1-yl)-5-fluoro-N2-[3-methyl-4-(4-methylpiperazin-1-yl)phenyl]-2,4-pyrimidinediamine]	–
> 10 µM	> 10 µM	–	–	Cc1cc(Nc2ncc(F)c(N[C@@H]3CC=CC[C@H]3C(N)=O)n2)ccc1N1CCN(C)CC1 (racemic) [compound 229, Racemic-N4-(2-aminocarbonylcyclohex-4-ene-1-yl)-5-fluoro-N2-[3-methyl-4-(4-methylpiperazin-1-yl)phenyl]-2,4-pyrimidinediamine]	–
0.1 to 1 µM	0.1 to 1 µM	–	–	Cc1cc(Nc2ncc(F)c(N[C@@H]3C=C[C@H](C(N)=O)C3)n2)ccc1N1CCN(C)CC1 [compound 225, (1S,4R)-cis-N4-(4-Aminocarbonylcyclopent-2-ene-1-yl)-5-fluoro-N2-[3-methyl-4-(4-methylpiperazin-1-yl)phenyl]-2,4-pyrimidinediamine]	–
1 to 10 µM	1 to 10 µM	–	–	CN1CCN(C(=O)c2ccc(Nc3ncc(F)c(N[C@H]4CCC[C@H]4C(N)=O)n3)cc2)CC1 (racemic) [compound 281, Racemic-cis-N4-(2-aminocarbonylcyclopent-1-yl)-5-fluoro-N2-[4-(4-methylpiperaino-1-yl-carbonyl)phenyl]-2,4-pyrimidinediamine]	–
0.1 to 1 µM	0.1 to 1 µM	–	–	COc1cc(Nc2ncc(F)c(N[C@@H]3[C@H](C(N)=O)[C@H]4C=C[C@@H]3C4)n2)ccc1N1C(=O)CN(C)CC1=O (racemic) [compound 266, Racemic-(2-exo,3-exo)-N4-(3-aminocarbonylbicyclo[2.2.1]hept-5-en-2-yl)-5-fluoro-N2-[3-methoxy-4-(4-methyl-2,6-dioxopiperazino)phenyl]-2,4-pyrimidinediamine]	–
0.1 to 1 µM	0.1 to 1 µM	–	–	Cc1cc(Nc2ncc(F)c(N[C@H]3CCC[C@H]3C(N)=O)n2)ccc1N1CC2CC1CN2C (mixture of isomers) [compound 282, Racemic-cis-N4-(2-aminocarbonylcyclopent-1-yl)-5-fluoro-N2-[3-methyl-4-(5-methyl-(1S,4S)-2,5-diazabicyclo[2.2.1]heptan-2-yl)phenyl]-2,4-pyrimidinediamine]	–
≤ 0.1 µM	≤ 0.1 µM	–	–	CN1CCC(c2cccc(Nc3ncc(F)c(N[C@H]4[C@@H](C(N)=O)[C@@H]5C=C[C@H]4C5)n3)c2)CC1 [compound 275, (1R,2R,3S,4S)-N4-(3-Aminocarbonylbicyclo[2.2.1]hept-5-en-2-yl)-5-fluoro-N2-[3-(1-methylpiperidin-4-yl)phenyl]-2,4-pyrimidinediamine]	–
